Data on six compounds can be found in patent publication US20090258046A1, “COMPOSITION, FORMULATIONS AND KIT FOR TREATMENT OF RESPIRATORY AND LUNG DISEASE WITH NON-GLUCOCORTICOID STEROIDS AND/OR UBIQUINONE AND A BRONCHODILATING AGENT” (priority 2001, published 2009).

Assay [1] has as its system HT-29 SF cells. Nature of the assay: Reversal of DHEA effect on cell cycle by medium supplements (flow cytometry). In kind it is cell-based, human. The settings on record: for prevention of DHEA-induced S phase depletion: 2 FM MVA, 15 Fg/ml CH, RN 30 FM.
Assay [2] has as its system HT-29 SF cells. Nature of the assay: Reversal of DHEA-mediated growth inhibition by medium supplements. The class given is cell-based, human. The settings on record: 25 μM DHEA, 48 hour treatment; 2 μM MVA, 80 μM SQ, 15 μg/ml CH, RN 30 μM each, DN 20 μM each. How it is done: RN plus DN, or MVA plus CH plus RN, or medium that was not supplemented. All compounds were obtained from Sigma Chemical Co. (St. Louis, Mo.) Cholesterol was solubilized in ethanol immediately before use. […] In A, the medium was supplemented with 2 μM MVA, 80 μM SQ, 15 μg/ml CH, or MVA plus CH (MVA+CH) or was not supplemented (CON). […] RN plus DN (RN+DN); or MVA plus CH plus RN (MVA+CH+RN). […] Columns represent cell growth percentage of untreated controls; bars represent SEM. Increase in cell number in untreated controls was […]. Each data point represents quadruplicate dishes from four independent experiments. Statistical analysis was performed using Student's t test κ ρ<0.01; φ ρ<, 0.001; compared to treated controls.

The subject of assay [3] is Intracellular adenosine in various Rat Tissues. The assay can be described thus: In vivo effect on tissue adenosine levels in rats (HPLC of 1,N6-ethenoadenosine). Set-up: species or system Fischer 344 rats. As to conditions: for Intracellular adenosine, Brain / Intracellular adenosine, Heart / Intracellular adenosine, Liver: mean ± SEM. From the text: […] […] Hearts were removed from animals and flash frozen in liquid nitrogen with 10 seconds of death. Liver and lungs were removed en bloc and flash frozen with 30 seconds of death. Brain tissue was subsequently dissected.

Another assay deals with purified G6PDH (Homo sapiens, UniProt P11413). Nature of the assay: Enzymatic assay of purified G6PDH (absorbance at 340 nm). The settings on record: in vitro.
Sequence of purified G6PDH (P11413 whole entry): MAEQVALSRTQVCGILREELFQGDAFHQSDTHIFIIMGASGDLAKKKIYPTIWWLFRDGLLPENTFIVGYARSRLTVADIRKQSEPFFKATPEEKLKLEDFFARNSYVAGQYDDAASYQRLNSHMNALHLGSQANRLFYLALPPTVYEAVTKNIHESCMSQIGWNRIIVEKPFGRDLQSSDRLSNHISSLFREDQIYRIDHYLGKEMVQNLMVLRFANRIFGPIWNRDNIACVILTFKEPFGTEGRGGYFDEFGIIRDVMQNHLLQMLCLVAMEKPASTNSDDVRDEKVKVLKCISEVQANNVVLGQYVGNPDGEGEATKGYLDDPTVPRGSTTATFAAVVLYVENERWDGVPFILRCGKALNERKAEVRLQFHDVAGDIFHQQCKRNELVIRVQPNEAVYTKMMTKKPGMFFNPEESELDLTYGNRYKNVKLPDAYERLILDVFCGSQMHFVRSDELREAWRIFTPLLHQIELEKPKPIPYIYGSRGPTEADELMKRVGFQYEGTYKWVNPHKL
In assay [4] the test system is HT-29 SF cells. Nature of the assay: DHEA effect on cell growth (Coulter counter cell number).
Experimental: Cell cultures, HT-29 SF cells, which represent a subline of HY-29 cells (ATCC, Rockville, Md.) and are adapted for growth in completely defined serum-free PC-1 medium (Ventrex, Portland, Me.), were obtained. Stock cultures were maintained in this medium at 37° (in a humidified atmosphere containing 5% CO2).
Assay [5] has as its system HT-29 SF cells. The assay can be described thus: DHEA effect on cell cycle distribution (flow cytometry, propidium iodide). In kind it is cell-based, human.
[6] abbreviates: high dose methyltestosterone daily for two weeks, versus control.
[7] abbreviates: methyltestosterone 40 mg/kg by gavage once daily for fourteen days.
Where [8] appears, read: folinic acid 50 mg/kg intraperitoneally once daily for fourteen days.

Experimental for purified G6PDH: All experiments were repeated 4 times.
A second group was added different concentrations of a CoQ of long side chain (in triplicate), and a third group received a CoQ of short side chain (in triplicate), both at various doses in the μM range.
The reaction was started by addition of the enzyme, and the increase in absorbance at 340 nm was measured for 5 minutes. Each data point was conducted in triplicate, and the fill experiment was repeated 4 times.

Consider `CC(C)CCC[C@@H](C)[C@H]1CC[C@H]2[C@@H]3CC=C4C[C@@H](O)CC[C@]4(C)[C@H]3CC[C@]12C` [CH, cholesterol], for which the “prevention of DHEA-induced S phase depletion” value in the assay on HT-29 SF cells [1] (48 hours) is reported as “very little effect”; with HT-29 SF cells [1] (72 hours), “no effect”. In addition, the “reversal of DHEA-induced growth inhibition” value with HT-29 SF cells [2] was “no such effect”.
Take `C[C@]12CCC(=O)C=C1CC[C@@H]1[C@@H]2CC[C@@]2(C)[C@H]1CC[C@]2(C)O` [Methyl-testosterone, methyltestosterone]: the “effect on adenosine across organs” value in assay [3] (administered daily for two weeks) was “multi-organ depletion of adenosine”. Moreover, in assay [3] (setting [6]), the “depletion of adenosine in brain” value worked out at 34% and the “depletion of adenosine in heart” value was 22%. Also, in assay [3] (setting [7]), the “Intracellular adenosine, Brain” value is given as 0.42 ± 0.06 nmols/mg protein; the “Intracellular adenosine, Heart” value was determined as 8.3 ± 1.0 nmols/mg protein; the “Intracellular adenosine, Liver” value was determined as 16.5 ± 0.9 nmols/mg protein. Moreover, in assay [3] (methyltestosterone 120 mg/kg), the “Intracellular adenosine, Brain” value is 0.32 ± 0.03 nmols/mg protein; the “Intracellular adenosine, Heart” value came to 6.0 ± 0.4 nmols/mg protein; the “Intracellular adenosine, Liver” value was 5.1 ± 0.5 nmols/mg protein.
Take `CC(C)=CCC/C(C)=C/CC/C(C)=C/CC/C=C(\C)CC/C=C(\C)CCC=C(C)C` [SQ, squalene]: the “reversal of DHEA-induced growth inhibition” value in the assay with HT-29 SF cells [2] was “no such effect”.
As for `C[C@@](O)(CCO)CC(=O)O` [MVA, mevalonic acid], the “prevention of DHEA-induced S phase depletion” value in the assay on HT-29 SF cells [1] (48 hours) was “partially prevented”; in the assay on HT-29 SF cells [1] (72 hours) it was “not”. Further, the “prevention of DHEA-induced rounded shape” value in the assay with HT-29 SF cells [1] (supplement added to culture medium (data not shown)) is listed as “prevented”. For the same compound, in the assay with HT-29 SF cells [2], the “reversal of DHEA-induced growth inhibition” value is given as “partially overcome”.
As for `C[C@]12CC[C@H](O)CC1=CC[C@@H]1[C@@H]2CC[C@]2(C)C(=O)CC[C@@H]12` [DHEA, dehydroepiandrosterone], at purified G6PDH (various doses in the μM range, compared to controls), the “inhibition of G6PDH enzyme activity (in words)” value is recorded as “inhibited the enzyme activity in a statistically significant manner”. Moreover, the “inhibition of the activity of purified G6PDH compared to control” value against purified G6PDH (concentration not given) is 72%. Further, the inhibition of growth entry with HT-29 SF cells [4] (0-200 μM DHEA, 0-72 hours) is “time- and dose-dependent inhibition of growth”. Moreover, the “exposure time after which cell number was reduced compared to controls” value in the assay with HT-29 SF cells [4] (12.5 μM DHEA) amounted to 72 h; in the assay with HT-29 SF cells [4] (25 μM DHEA), 48 h; in the assay on HT-29 SF cells [4] (50 μM DHEA) it was 48 h; in the assay with HT-29 SF cells [4] (200 μM DHEA) it was 24 h. Moreover, the cell morphology entry in the assay with HT-29 SF cells [1] (DHEA exposure (data not shown)) was “rounded shape”. Further, the “proportion of cells in S phase” value with HT-29 SF cells [1] (with increasing exposure time (48 and 72 hours)) is given as “progressively reduced”; with HT-29 SF cells [5] (200 μM DHEA, after 24 hours, continued through the treatment) it was “decreased”; in the assay on HT-29 SF cells [5] (25 or 50 μM DHEA, as time of exposure increased) it was “progressively decreased”. In addition, in the assay on HT-29 SF cells [5] (25-200 μM DHEA, 24-72 hours), the “overall effect on cell cycle” value is “G1 block in HT-29 SF cells in a time- and dose-dependent manner”. In addition, the G2M phase cells result in the assay on HT-29 SF cells [5] (25 or 50 μM DHEA, after 48 hours) is “transient increase”. Further, the “percentage of cells in G1 phase” value with HT-29 SF cells [5] (25 or 50 μM DHEA, after 72 hours) was “increased”. The cell cycle distribution result in the assay with HT-29 SF cells [5] (25 or 50 μM DHEA, after the initial 24 hours) is recorded as “unchanged”.
Take `Nc1nc(=O)c2c([nH]1)NCC(CNc1ccc(C(=O)N[C@@H](CCC(=O)O)C(=O)O)cc1)N2C=O` (mixture of isomers) [Folinic Acid, Folinic acid]: in assay [3] (setting [8]), the “Intracellular adenosine, Brain” value is on record as 0.72 ± 0.09 nmols/mg protein; the “Intracellular adenosine, Heart” value came to 12.4 ± 2.1 nmols/mg protein; the “Intracellular adenosine, Liver” value worked out at 16.4 ± 2.4 nmols/mg protein. Moreover, in assay [3] (folinic acid administered alone), the “effect on adenosine levels, all organs studied” value is “increase”. Also, in assay [3] (folinic acid coadministered with DHEA or methyltestosterone), the “effect of coadministration on steroid-mediated adenosine depletion” value is “completely abrogated”.
